Measured values published in article PMC8126241, “Active Components from Cassia abbreviata Prevent HIV-1 Entry by Distinct Mechanisms of Action” (International Journal of Molecular Sciences, 2021).
Read-outs that look alike come from different tables or passages of the source.

Tests used:
PBMCs [1] = assay type: cell-based, human
Experimental: To assess drug cytotoxicity, PBMCs were incubated with or without drugs in a 96-well round bottom plate (Thermo Fisher, Asse, Belgium) at 2 × 10^5/200 μL/well. After 2 days, cells were washed with PBS and stained with 0.1 μL near-IR fluorescent reactive dye (Life technologies, Ghent, Belgium) in 100 μL PBS for 20 min at room temperature in dark. Stained cells were measured by flow cytometry (FACSCanto, BD biosciences, Belgium).

PBMCs [2] = assay type: cell-based, human; remark: listed apart in the source
Experimental: To measure apoptosis, PBMCs were incubated with or without drugs in a 96-well round bottom plate at 2 × 10^5/200 μL/well. After 2 days, cells were washed with PBS and stained with 2.5 μL Annexin-V-APC (Biosciences, Aalst, Belgium) in 100 μL staining buffer containing 10 mmol/L HEPES pH7.4, 140 mmol/L NaCl, and 2.5 mmol/L CaCl2 for 20 min at room temperature in dark. Cells were then washed with staining buffer and incubated with 100 μL 0.1 μg/mL propidium iodide (PI) (Thermo Fisher, Asse, Belgium) for 5 min at room temperature in dark. Stained cells were measured by flow cytometry (FACSCanto, BD, Aalst, Belgium).

CXCR4 = target: T1, CXCR4 (Homo sapiens, UniProt P61073); assay: Binding competition with anti-CXCR4 antibody 12G5; settings: anti-CXCR4 antibody 12G5, U373-CD4-CXCR4 cells
T1 construct: host or cells: U373-CD4-CXCR4 cells

CCR5 = target: T2, CCR5 (Homo sapiens, UniProt P51681); assay: Binding competition with anti-CCR5 antibody 2D7; settings: anti-CCR5 antibody 2D7, U373-CD4-CCR5 cells
T2 construct: host or cells: U373-CD4-CCR5 cells
Experimental: Binding competition between increasing concentrations of compounds and FITC-conjugated mouse anti-human CD4 clone RPA-4 (Biolegend, Amsterdam, Netherlands), PE-conjugated mouse anti-Human CXCR4 clone 12G5, and PE-conjugated mouse anti-human CCR5 clone 2D7 (BD Pharma, Aalst, Belgium) to U373-CD4-CXCR4 and U373-CD4-CCR5 cells was first tested by flow cytometry (FACSCanto). […] After 1 h of incubation at 4 °C, cells were washed with FACS buffer (1% bovine serum albumin, 0.1% N3Na in PBS, Sigma), and Mean Fluorescence Intensity (MFI) was measured. […] Internalization was stopped after 30 min by addition of NaN3 (0.1%) on ice. Cells were stained with anti-human CXCR4 clone 4G10 (BD, Belgium) or anti-human CCR5 (CD195) clone T21/8, (eBioscience, Asse, Belgium), Near-IR fluorescent reactive dye during 1 h at 4 °C, washed with FACS buffer, and a secondary PE-conjugated goat anti-mouse antibody (Jackson ImmunoResearch, West Grove, PA, USA).

[3] = system: Herpes simplex virus-1 (KOS); assay: Broad spectrum antiviral activity, HEL cells; assay type: cell-based
[4] = system: Herpes simplex virus-2 (G); assay: Broad spectrum antiviral activity, HEL cells; assay type: cell-based; settings: Human alphaherpesvirus 2, HEL
[5] = system: Vesicular stomatitis virus; assay: microbe, parasite or virus in culture; assay type: cell-based
[6] = system: Influenza A/H3N2 A/HK/7/87; assay: Broad spectrum antiviral activity, MDCK cells; assay type: cell-based; settings: Influenza A virus
Influenza B B/Ned/537/05 = assay: microbe, parasite or virus in culture; assay type: cell-based; settings: MDCK cells
Hepatitis C virus (Jc1) = assay: Broad spectrum antiviral activity, Huh 7-D cells; assay type: cell-based
[7] = system: Respiratory syncytial virus; assay: Broad spectrum antiviral activity, HeLa cells; assay type: cell-based; settings: human respiratory syncytial virus
Para-influenza-3 virus = assay: organism not typed; assay type: cell-based; settings: vero cells
Reovirus-1 = assay: Broad spectrum antiviral activity, vero cells; assay type: cell-based
Human corona virus = assay: Broad spectrum antiviral activity, HEL cells; assay type: cell-based
HeLa cells = system: HeLa cells
Experimental: (§1) Dual chamber transmission assay was performed as previously described. HeLa cells were seeded into an upper chamber of a transwell plate (Sigma-Aldrich, Liège, Belgium), while TZM-bl cells were seeded in the lower chamber. Trans Epithelial Electric Resistance (TEER) was measured using Millicell-ERS Volt-Ohm Meter. HIV-1 ADA-M (200 pg) and drugs were added to the upper chamber after 4 days when TEER reached 150 Ohm/cm^2. 24 h after infection luciferase value of TZM-bl cells lysate was measured using the Luciferase System Kit and the POLARstar Omega Plate Reader. Data were analyzed using GraphPrism. The HIV-1 DC-SIGN transmission assay was performed as previously described.

[8] = system: DC-SIGN-captured virus transmission to CD4+ T cells; assay: HIV-1 DC-SIGN transmission assay; assay type: cell-based; settings: in vitro, data not shown
Experimental: as §1

HIV-1 = settings: read-out: IC50 HIV-1 replication; ref Clouser et al. [24]; cited from earlier work
HIV-1 ADA-M = assay: microbe, parasite or virus in culture; settings: Human immunodeficiency virus 1, PBMC, 168 h, read-out: IC50 HIV-1 ADA-M
[9] = system: non-B HIV-1 primary clinical isolate #1; assay: microbe, parasite or virus in culture; settings: Human immunodeficiency virus 1, PBMC, 168 h, read-out: IC50 non-B HIV-1 primary clinical isolate (first named)
[10] = system: pseudotype virus pNL4.3ΔEnvLuc-HXB2; assay: microbe, parasite or virus in culture; settings: Human immunodeficiency virus 1, HXB2, read-out: IC50 HIV-1 entry

T2 sequence (P51681 whole entry): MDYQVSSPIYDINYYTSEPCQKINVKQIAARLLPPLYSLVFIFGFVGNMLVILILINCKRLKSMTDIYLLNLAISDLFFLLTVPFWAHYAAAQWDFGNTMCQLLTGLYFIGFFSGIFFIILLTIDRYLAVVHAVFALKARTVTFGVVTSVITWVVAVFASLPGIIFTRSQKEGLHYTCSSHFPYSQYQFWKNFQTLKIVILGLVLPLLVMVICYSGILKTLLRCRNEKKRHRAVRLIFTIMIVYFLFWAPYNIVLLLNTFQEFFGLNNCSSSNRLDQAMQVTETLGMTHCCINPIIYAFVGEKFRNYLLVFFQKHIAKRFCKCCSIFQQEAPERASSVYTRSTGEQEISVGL
T1 sequence (P61073 whole entry): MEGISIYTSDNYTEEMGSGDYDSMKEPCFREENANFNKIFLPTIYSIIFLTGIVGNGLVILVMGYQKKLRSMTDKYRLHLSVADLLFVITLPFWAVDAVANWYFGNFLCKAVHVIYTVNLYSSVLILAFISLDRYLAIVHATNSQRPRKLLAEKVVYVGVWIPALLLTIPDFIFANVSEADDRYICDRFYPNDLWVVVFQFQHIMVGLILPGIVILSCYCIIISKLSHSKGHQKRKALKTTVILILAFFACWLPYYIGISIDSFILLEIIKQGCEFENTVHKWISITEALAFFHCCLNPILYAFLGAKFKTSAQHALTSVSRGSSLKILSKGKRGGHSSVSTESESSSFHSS

With `Oc1cc(O)cc(/C=C/c2ccc(O)c(O)c2)c1` [piceatannol, trans-3,3′,4,5′-tetrahydroxystilbene] the “Cytotoxicity in PBMCs” value (PBMCs [1]) was “not cytotoxic”, the “Induction of apoptosis in PBMCs” value (PBMCs [2]) was “did not induce any apoptosis” and the “Inhibition of CXCR4 binding” value (CXCR4) was “neither CE nor piceatannol did”. For the same compound, the “Inhibition of CCR5 binding” value (CCR5) was “neither CE nor piceatannol did”, the IC50 [3] was 47.5 ± 3.5 µM and the IC50 ([3]; Human alphaherpesvirus 1, HEL) was ~45 µM. It also gave an IC50 [4] of ~45 µM, an IC50 [5] of 79.2 ± 17 µM and an IC50 ([5]; Vesicular stomatitis virus, U-87 MG) of 79.2 ± 17.2 µM. For the same compound, the IC50 [6] was > 100 µM, the IC50 (Influenza B B/Ned/537/05) was > 100 µM and the IC50 (Hepatitis C virus (Jc1)) was > 100 µM. For the same compound, the IC50 [7] was > 100 µM, the IC50 (Para-influenza-3 virus) was > 100 µM and the IC50 (Reovirus-1) was > 100 µM. For the same compound, the IC50 (Human corona virus) was > 100 µM, the “Effect on confluence layer's TEER and epithelial cells viability” value (HeLa cells) was “without affecting” and the “Prevention of transmission of DC-SIGN-captured virus to CD4+ T cells” value [8] was “did not prevent”. The IC50 (HIV-1) was 21.4 µM, the IC50 (HIV-1 ADA-M) was 19.9 ± 0.22 µM and the IC50 [9] was 37.7 ± 12.5 µM. The IC50 [10] was 10.3 ± 5.74 µM.
